Measurements as given in article PMC9993459, “A novel selective spleen tyrosine kinase inhibitor SKI-O-703 (cevidoplenib) ameliorates lupus nephritis and serum-induced arthritis in murine models” (Clinical and Experimental Immunology, 2022).

How the values were obtained:
FGFR3 = FGFR3 (Homo sapiens, UniProt P22607); test: Kinase assay (LANCE Ultra TR-FRET), FGFR3; type: biochemical
Description: (§1) Kinase assays were conducted in 384-well plates using LANCE ultra 66 time-resolved fluorescence resonance energy transfer (TR-FRET) methods, according to the manufacturer’s instructions (Perkin-Elmer). In brief, each kinase was pre-incubated with a serially diluted compound for 30 min, incubated with ULight poly-GT peptide substrate and ATP for up to 1 h. Thirty minutes after adding Eu-labeled anti-phosphopeptides Ab diluted in LANCE Detection Buffer, LANCE signals were measured with an EnVision multilabel reader (Perkin-Elmer).

[1] = system: Syk phosphorylation (Y525/526), BLNK, PLCγ1, Vav1; test: Immunoblotting of phosphorylated Syk and downstream molecules in Ramos cells, human primary monocytes and THP-1 cells; type: cell-based; settings: all three cell lines, dose-dependent, more potent than R406
Description: (§2) THP-1 and Ramos cell lines and human CD14^+ monocytes were purchased from the American Type Culture Collection (ATCC) and Lonza, respectively. After treatment with Syk inhibitors for 1 h, THP-1 cells and monocytes were stimulated for 15 min with 100 μg/ml human IgG (Invitrogen), and Ramos cells were stimulated with 2 μg/ml anti-human IgM monoclonal Ab (mAb) (Bathyl). Cells were lysed in RIPA buffer containing 1% NP-40, 1% sodium deoxycholate, 0.1% SDS, and a mixture of protease and phosphatase inhibitors (Thermo Scientific). The lysates were assayed by standard immunoblotting methods and ELISA. Primary Abs used for immunoblotting were anti-phospho-Syk ([…]), anti-phospho-Vav (Y174), anti-phospho-PLCγ1 (Y1217) and anti-phospho-BLNK (Y96) Abs (all from Cell Signaling). ELISAs to detect phospho-Syk (Y525/526) were performed according to the manufacturer’s protocol (Cell Signaling).
Figure 1: in vitro inhibitory effects of SKI-O-592 and -703 on Syk in B cells and monocytes. […] The relative intensities of protein phosphorylation levels were quantitated with reference to each lane of β-actin control bands. (D) Ramos cells, human primary monocytes, and THP cells were treated as in A–C for 24 h and levels of phosphorylated Syk (p-Syk) were measured by ELISA. […] A representative FACS profile and data on the dose-response of mean fluorescence intensity (MFI) are shown. […]

Jak2 = Jak2 (Homo sapiens, UniProt O60674); test: Kinase assay (LANCE Ultra TR-FRET), Jak2; type: biochemical
Description: as §1

[2] = biological target: T1, phosphorylated Syk (p-Syk) in human CD14+ monocytes (Homo sapiens, UniProt P43405); test: p-Syk ELISA in IgG-stimulated human CD14+ monocytes (FcγR signal); type: cell-based
T1 construct: endogenous in cells; host or cells: Ramos (ATCC), THP-1 (ATCC), human CD14+ monocytes (Lonza)
Description: as §2
Ramos cells (A), human primary monocytes (B), and THP cells (C) were pretreated with inhibitors at the indicated concentrations and stimulated with anti-human IgM (A) and human IgG (B and C). […] The relative intensities of protein phosphorylation levels were quantitated with reference to each lane of β-actin control bands. (D) Ramos cells, human primary monocytes, and THP cells were treated as in A–C for 24 h and levels of phosphorylated Syk (p-Syk) were measured by ELISA.

mouse primary B cells = test: Annexin V/7-AAD apoptosis assay in B cells; type: cell-based; settings: 24 h, effect more potent with anti-IgM than LPS
Description: Splenic CD19^+ B cells from C57BL/6 mice were sorted by MACS (Milteny Biotec), stained with 3 μM cell proliferation dye eFluor 670 (CP670; eBioscience), and cultured for 72 h in the presence of either 10 μg/ml LPS (Sigma Aldrich) or 5 μg/ml anti-mouse IgM (Jackson Immuno Research Laboratories), 10 μg/ml anti-CD40 mAb (Biolegend) and 10 ng/ml IL-4 (Peprotech), and assayed by FACS. To detect apoptotic cells, unstimulated cells were cultured for 24 h, stained with Annexin V and 7-aminoactinomycin D (7-AAD), and assayed by FACS.
Figure 2: in vitro effects of SKI-O -703 on the proliferation, survival, and differentiation of B cells. Mouse primary B cells were labeled with CP670, and stimulated with either anti-IgM mAb, CD40L and IL-4 (A) or LPS (B) for 72 h in the presence or absence of SKI-O-703 and tofacitinib at the indicated concentrations; they were then assayed by FACS. (C and D) Mouse primary B cells were cultured as in A and B for 24 h, stained with Annexin V and 7-AAD, and assayed by FACS. Representative FACS profiles and graphs displaying mean Annexin V-positivity are shown. (E) Human primary B cells were stimulated with CpG ODN plus IL-2 (to detect IgM and IgG) or CpG ODN 2006 plus IFN-α (to detect IL-6) in the presence or absence of inhibitors. The culture supernatants were assayed by ELISA. Graphs are expressed as % positivity relative to the controls (without inhibitor). […]

Chain of FGFR3 (P22607 23-806, species assumed): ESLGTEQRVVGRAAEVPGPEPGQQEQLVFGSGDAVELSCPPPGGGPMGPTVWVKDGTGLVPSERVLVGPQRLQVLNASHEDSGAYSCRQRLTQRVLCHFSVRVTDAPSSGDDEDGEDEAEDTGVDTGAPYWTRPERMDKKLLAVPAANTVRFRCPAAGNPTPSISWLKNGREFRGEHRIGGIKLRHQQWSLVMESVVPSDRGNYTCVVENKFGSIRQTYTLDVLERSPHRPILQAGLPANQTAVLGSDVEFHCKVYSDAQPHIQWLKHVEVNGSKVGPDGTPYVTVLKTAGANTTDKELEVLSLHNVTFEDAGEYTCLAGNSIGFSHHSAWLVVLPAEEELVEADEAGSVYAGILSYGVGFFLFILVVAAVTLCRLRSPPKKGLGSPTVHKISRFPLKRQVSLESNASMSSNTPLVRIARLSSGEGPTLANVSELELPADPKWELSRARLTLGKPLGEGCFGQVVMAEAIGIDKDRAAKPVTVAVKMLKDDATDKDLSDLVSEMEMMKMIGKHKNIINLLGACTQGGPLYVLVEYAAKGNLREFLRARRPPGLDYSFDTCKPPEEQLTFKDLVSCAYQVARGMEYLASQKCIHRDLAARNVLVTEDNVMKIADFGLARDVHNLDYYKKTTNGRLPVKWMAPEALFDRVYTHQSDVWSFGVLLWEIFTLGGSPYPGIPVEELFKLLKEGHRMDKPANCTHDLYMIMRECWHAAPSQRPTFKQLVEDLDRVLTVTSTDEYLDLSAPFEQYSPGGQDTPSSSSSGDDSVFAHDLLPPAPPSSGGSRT
Chain of Jak2 (O60674 whole entry, species assumed): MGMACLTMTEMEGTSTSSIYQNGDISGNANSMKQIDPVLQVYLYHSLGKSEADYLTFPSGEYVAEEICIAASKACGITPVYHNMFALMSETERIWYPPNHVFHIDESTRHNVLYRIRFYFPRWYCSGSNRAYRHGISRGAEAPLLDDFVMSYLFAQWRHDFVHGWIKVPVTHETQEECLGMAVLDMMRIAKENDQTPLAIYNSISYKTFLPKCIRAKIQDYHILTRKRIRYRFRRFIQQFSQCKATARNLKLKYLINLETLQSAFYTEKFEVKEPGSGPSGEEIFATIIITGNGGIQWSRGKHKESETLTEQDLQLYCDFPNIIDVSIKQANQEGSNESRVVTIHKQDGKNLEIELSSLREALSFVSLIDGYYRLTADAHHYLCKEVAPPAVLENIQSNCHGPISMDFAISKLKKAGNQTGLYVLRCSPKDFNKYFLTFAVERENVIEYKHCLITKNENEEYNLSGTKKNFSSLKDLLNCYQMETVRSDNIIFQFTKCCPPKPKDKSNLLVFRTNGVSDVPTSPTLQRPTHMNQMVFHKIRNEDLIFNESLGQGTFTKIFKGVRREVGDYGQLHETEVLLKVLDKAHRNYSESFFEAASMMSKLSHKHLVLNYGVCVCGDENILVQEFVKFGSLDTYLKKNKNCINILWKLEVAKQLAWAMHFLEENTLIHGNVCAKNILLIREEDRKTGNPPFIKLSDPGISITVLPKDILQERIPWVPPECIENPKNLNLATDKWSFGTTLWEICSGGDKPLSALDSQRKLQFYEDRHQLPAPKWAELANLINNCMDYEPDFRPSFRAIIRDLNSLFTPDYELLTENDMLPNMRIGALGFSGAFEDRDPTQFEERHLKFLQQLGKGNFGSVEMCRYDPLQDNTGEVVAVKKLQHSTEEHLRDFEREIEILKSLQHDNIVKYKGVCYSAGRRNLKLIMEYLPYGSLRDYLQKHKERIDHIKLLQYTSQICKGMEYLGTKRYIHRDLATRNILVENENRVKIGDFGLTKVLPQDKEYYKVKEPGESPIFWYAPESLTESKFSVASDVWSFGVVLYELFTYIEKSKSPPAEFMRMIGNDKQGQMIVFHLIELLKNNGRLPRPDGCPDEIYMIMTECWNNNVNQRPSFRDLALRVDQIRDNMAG

Row | SMILES | Ratio to Syk (FGFR3) (FGFR3; IC50 ratio to Syk) | IC50 (FGFR3; kinase activity, TR-FRET) | Phosphorylation of Syk Y525/526 and downstream BLNK, PLCγ1, Vav1 (immunoblotting) [1] | Ratio to Syk (Jak2) (Jak2; IC50 ratio to Syk) | IC50 (Jak2; kinase activity, TR-FRET) | IC50 [2] | Proportions of early and late apoptotic B cells (mouse primary B cells)
1 | Cc1nn(-c2ccnc(Nc3ccc4c(c3)c(C(=O)C3CC3)cn4C)n2)cc1CN1C[C@H](O)CO1 [SKI-O-592] | 919 | 5.66 µM | inhibited phosphorylation | 302 | 1.86 µM | 0.191 µM | 
2 | CS(=O)(=O)O.CS(=O)(=O)O.Cc1nn(-c2ccnc(Nc3ccc4c(c3)c(C(=O)C3CC3)cn4C)n2)cc1CN1C[C@H](O)CO1 [SKI-O-703, (S)-cyclopropyl(5-((4-(4-((4-hydroxyisoxazolidin-2-yl)methyl)-3-methyl-1H-pyrazol-1-yl)pyrimidin-2-yl)amino)-1-methyl-1H-indol-3-yl)methanone dimesylate] |  |  |  |  |  |  | increased the proportions of early and late apoptotic cells
